Results: PubChem BioAssay (NCI)
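Each compound was tested at five concentrations against cells in 96-well plates for 48 hours. Definition used: TGI = concentration required for complete inhibition of growth.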

Experiments:
Assay in all cases: NCI anticancer screen, dose series, 48 h
786-0 renal = system: 786-0 renal
A498 renal = system: A498 renal
A549 NSCLC = system: A549 NSCLC
ACHN renal = system: ACHN renal
CAKI-1 renal = system: CAKI-1 renal
CCRF-CEM leukemia = system: CCRF-CEM leukemia
COLO 205 colon = system: COLO 205 colon
DLD-1 colon = system: DLD-1 colon
DMS 114 small cell lung = system: DMS 114 small cell lung
DMS 273 small cell lung = system: DMS 273 small cell lung
EKVX NSCLC = system: EKVX NSCLC
HCC-2998 colon = system: HCC-2998 colon
HCT-116 colon = system: HCT-116 colon
HCT-15 colon = system: HCT-15 colon
HL-60(TB) leukemia = system: HL-60(TB) leukemia
HOP-18 NSCLC = system: HOP-18 NSCLC
HOP-62 NSCLC = system: HOP-62 NSCLC
HT29 colon = system: HT29 colon
IGROV1 ovarian = system: IGROV1 ovarian
K-562 leukemia = system: K-562 leukemia
KM12 colon = system: KM12 colon
KM20L2 colon = system: KM20L2 colon
LOX IMVI melanoma = system: LOX IMVI melanoma
LXFL 529 NSCLC = system: LXFL 529 NSCLC
M14 melanoma = system: M14 melanoma
M19-MEL melanoma = system: M19-MEL melanoma
MALME-3M melanoma = system: MALME-3M melanoma
MOLT-4 leukemia = system: MOLT-4 leukemia
NCI-H226 lung = system: NCI-H226 lung
NCI-H23 lung = system: NCI-H23 lung
NCI-H460 lung = system: NCI-H460 lung
NCI-H522 lung = system: NCI-H522 lung
OVCAR-3 ovarian = system: OVCAR-3 ovarian
OVCAR-4 ovarian = system: OVCAR-4 ovarian
OVCAR-5 ovarian = system: OVCAR-5 ovarian
OVCAR-8 ovarian = system: OVCAR-8 ovarian
RPMI-8226 leukemia = system: RPMI-8226 leukemia
RXF 393 renal = system: RXF 393 renal
RXF-631 renal = system: RXF-631 renal
SF-268 CNS = system: SF-268 CNS
SF-295 CNS = system: SF-295 CNS
SF-539 CNS = system: SF-539 CNS
SK-MEL-2 melanoma = system: SK-MEL-2 melanoma
SK-MEL-28 melanoma = system: SK-MEL-28 melanoma
SK-MEL-5 melanoma = system: SK-MEL-5 melanoma
SK-OV-3 ovarian = system: SK-OV-3 ovarian
SN12C renal = system: SN12C renal
SNB-19 CNS = system: SNB-19 CNS
SNB-75 CNS = system: SNB-75 CNS
SNB-78 CNS = system: SNB-78 CNS
SR leukemia = system: SR leukemia
SW-620 colon = system: SW-620 colon
TK-10 renal = system: TK-10 renal
U251 CNS = system: U251 CNS
UACC-257 melanoma = system: UACC-257 melanoma
UACC-62 melanoma = system: UACC-62 melanoma
UO-31 renal = system: UO-31 renal
HOP-92 NSCLC = system: HOP-92 NSCLC

## COC(=O)C(C(=O)C(=O)Nc1nc2ccc([N+](=O)[O-])cc2s1)c1nc2ccc(Cl)cc2[nH]c1=O (stereo unspecified)
786-0 renal
  TGI: > 100 µM
A498 renal
  TGI: > 100 µM
A549 NSCLC
  TGI: > 100 µM
ACHN renal
  TGI: > 100 µM
CAKI-1 renal
  TGI: > 100 µM
CCRF-CEM leukemia
  TGI: > 100 µM
COLO 205 colon
  TGI: > 100 µM
DLD-1 colon
  TGI: > 100 µM
DMS 114 small cell lung
  TGI: > 100 µM
DMS 273 small cell lung
  TGI: > 100 µM
EKVX NSCLC
  TGI: > 100 µM
HCC-2998 colon
  TGI: > 100 µM
HCT-116 colon
  TGI: > 100 µM
HCT-15 colon
  TGI: > 100 µM
HL-60(TB) leukemia
  TGI: > 100 µM
HOP-18 NSCLC
  TGI: > 100 µM
HOP-62 NSCLC
  TGI: > 100 µM
HT29 colon
  TGI: > 100 µM
IGROV1 ovarian
  TGI: > 100 µM
K-562 leukemia
  TGI: > 100 µM
KM12 colon
  TGI: > 100 µM
KM20L2 colon
  TGI: > 100 µM
LOX IMVI melanoma
  TGI: > 100 µM
LXFL 529 NSCLC
  TGI: > 100 µM
M14 melanoma
  TGI: > 100 µM
M19-MEL melanoma
  TGI: > 100 µM
MALME-3M melanoma
  TGI: > 100 µM
MOLT-4 leukemia
  TGI: > 100 µM
NCI-H226 lung
  TGI: > 100 µM
NCI-H23 lung
  TGI: > 100 µM
NCI-H460 lung
  TGI: > 100 µM
NCI-H522 lung
  TGI: > 100 µM
OVCAR-3 ovarian
  TGI: > 100 µM
OVCAR-4 ovarian
  TGI: > 100 µM
OVCAR-5 ovarian
  TGI: > 100 µM
OVCAR-8 ovarian
  TGI: > 100 µM
RPMI-8226 leukemia
  TGI: > 100 µM
RXF 393 renal
  TGI: > 100 µM
RXF-631 renal
  TGI: > 100 µM
SF-268 CNS
  TGI: > 100 µM
SF-295 CNS
  TGI: > 100 µM
SF-539 CNS
  TGI: > 100 µM
SK-MEL-2 melanoma
  TGI: > 100 µM
SK-MEL-28 melanoma
  TGI: > 100 µM
SK-MEL-5 melanoma
  TGI: > 100 µM
SK-OV-3 ovarian
  TGI: > 100 µM
SN12C renal
  TGI: > 100 µM
SNB-19 CNS
  TGI: > 100 µM
SNB-75 CNS
  TGI: > 100 µM
SNB-78 CNS
  TGI: > 100 µM
SR leukemia
  TGI: > 100 µM
SW-620 colon
  TGI: > 100 µM
TK-10 renal
  TGI: > 100 µM
U251 CNS
  TGI: > 100 µM
UACC-257 melanoma
  TGI: > 100 µM
UACC-62 melanoma
  TGI: > 100 µM
UO-31 renal
  TGI: > 100 µM

## CCOc1nc(OCC)nc(-c2cccn2-c2ccccc2)n1
786-0 renal
  TGI: > 100 µM
A498 renal
  TGI: > 100 µM
A549 NSCLC
  TGI: > 100 µM
ACHN renal
  TGI: > 100 µM
CAKI-1 renal
  TGI: > 100 µM
CCRF-CEM leukemia
  TGI: > 100 µM
DMS 114 small cell lung
  TGI: 86.8 µM
DMS 273 small cell lung
  TGI: > 100 µM
EKVX NSCLC
  TGI: > 100 µM
HCC-2998 colon
  TGI: > 100 µM
HCT-116 colon
  TGI: > 100 µM
HCT-15 colon
  TGI: > 100 µM
HL-60(TB) leukemia
  TGI: 82.5 µM
HOP-62 NSCLC
  TGI: > 100 µM
HT29 colon
  TGI: > 100 µM
IGROV1 ovarian
  TGI: 89.3 µM
K-562 leukemia
  TGI: > 100 µM
KM12 colon
  TGI: > 100 µM
M14 melanoma
  TGI: > 100 µM
M19-MEL melanoma
  TGI: > 100 µM
MALME-3M melanoma
  TGI: 60.6 µM
MOLT-4 leukemia
  TGI: 57.4 µM
NCI-H226 lung
  TGI: > 100 µM
NCI-H23 lung
  TGI: > 100 µM
NCI-H460 lung
  TGI: > 100 µM
NCI-H522 lung
  TGI: > 100 µM
OVCAR-3 ovarian
  TGI: 69.3 µM
OVCAR-4 ovarian
  TGI: > 100 µM
OVCAR-5 ovarian
  TGI: > 100 µM
OVCAR-8 ovarian
  TGI: > 100 µM
RXF 393 renal
  TGI: > 100 µM
RXF-631 renal
  TGI: > 100 µM
SF-268 CNS
  TGI: > 100 µM
SF-295 CNS
  TGI: > 100 µM
SF-539 CNS
  TGI: > 100 µM
SK-MEL-2 melanoma
  TGI: 97.1 µM
SK-MEL-28 melanoma
  TGI: > 100 µM
SK-OV-3 ovarian
  TGI: 75 µM
SN12C renal
  TGI: > 100 µM
SNB-19 CNS
  TGI: > 100 µM
SNB-78 CNS
  TGI: > 100 µM
SR leukemia
  TGI: 99.7 µM
SW-620 colon
  TGI: > 100 µM
TK-10 renal
  TGI: 89.2 µM
U251 CNS
  TGI: 48.6 µM
UACC-257 melanoma
  TGI: > 100 µM
UACC-62 melanoma
  TGI: > 100 µM
UO-31 renal
  TGI: 67.9 µM

## O=C(O)C1(c2ccccc2)CCCNCC1 (stereo unspecified)
786-0 renal
  TGI: > 100 µM
A498 renal
  TGI: > 100 µM
A549 NSCLC
  TGI: > 100 µM
ACHN renal
  TGI: > 100 µM
CAKI-1 renal
  TGI: > 100 µM
CCRF-CEM leukemia
  TGI: > 100 µM
COLO 205 colon
  TGI: > 100 µM
DLD-1 colon
  TGI: > 100 µM
DMS 114 small cell lung
  TGI: > 100 µM
DMS 273 small cell lung
  TGI: > 100 µM
EKVX NSCLC
  TGI: > 100 µM
HCC-2998 colon
  TGI: > 100 µM
HCT-116 colon
  TGI: > 100 µM
HCT-15 colon
  TGI: > 100 µM
HOP-18 NSCLC
  TGI: > 100 µM
HOP-62 NSCLC
  TGI: > 100 µM
HOP-92 NSCLC
  TGI: > 100 µM
HT29 colon
  TGI: > 100 µM
IGROV1 ovarian
  TGI: > 100 µM
K-562 leukemia
  TGI: > 100 µM
KM12 colon
  TGI: > 100 µM
KM20L2 colon
  TGI: > 100 µM
LOX IMVI melanoma
  TGI: > 100 µM
LXFL 529 NSCLC
  TGI: > 100 µM
M14 melanoma
  TGI: > 100 µM
M19-MEL melanoma
  TGI: > 100 µM
MALME-3M melanoma
  TGI: > 100 µM
MOLT-4 leukemia
  TGI: > 100 µM
NCI-H226 lung
  TGI: > 100 µM
NCI-H23 lung
  TGI: > 100 µM
NCI-H460 lung
  TGI: > 100 µM
NCI-H522 lung
  TGI: > 100 µM
OVCAR-3 ovarian
  TGI: > 100 µM
OVCAR-4 ovarian
  TGI: > 100 µM
OVCAR-5 ovarian
  TGI: > 100 µM
OVCAR-8 ovarian
  TGI: > 100 µM
RPMI-8226 leukemia
  TGI: > 100 µM
RXF 393 renal
  TGI: > 100 µM
RXF-631 renal
  TGI: > 100 µM
SF-268 CNS
  TGI: > 100 µM
SF-295 CNS
  TGI: > 100 µM
SK-MEL-2 melanoma
  TGI: > 100 µM
SK-MEL-28 melanoma
  TGI: > 100 µM
SK-MEL-5 melanoma
  TGI: > 100 µM
SK-OV-3 ovarian
  TGI: > 100 µM
SN12C renal
  TGI: > 100 µM
SNB-19 CNS
  TGI: > 100 µM
SNB-75 CNS
  TGI: > 100 µM
SNB-78 CNS
  TGI: > 100 µM
SR leukemia
  TGI: > 100 µM
SW-620 colon
  TGI: > 100 µM
TK-10 renal
  TGI: > 100 µM
U251 CNS
  TGI: > 100 µM
UACC-257 melanoma
  TGI: > 100 µM
UACC-62 melanoma
  TGI: > 100 µM
UO-31 renal
  TGI: > 100 µM
